Where two headings read alike, the source gives them in different places.
How the values were obtained:
[1] = Animal study of alpha-tocotrienol quinone administration, pharmacokinetics in fasted dogs; assay type: in vivo; conditions: 10 mg/kg
[2] = rat, in vivo
Source text: The starting dose can be estimated based on the United States Food and Drug Administration guidelines titled “Estimating the Maximum Safe Starting Dose in Initial Clinical Trials for Therapeutics in Adult Healthy Volunteers” (July 2005) as well as the International Conference on Harmonisation of Technical Requirements for Registration of Pharmaceuticals for Human Use (ICH) guidelines titled “Guidance on Non-clinical Safety Studies for the Conduct of Human Clinical Trials and Marketing Authorization for Pharmaceuticals” (July 2008). Per ICH guidelines, predicted exposures from the starting dose should not exceed 1/50th the NOAEL (No-Adverse-Observed-Effect-Level) in the more sensitive species on a mg/m^2 basis. Following a single oral dose of alpha-tocotrienol quinone, the NOAEL was established to be 500 mg/kg for the female rat, i.e. 3,000 mg/m^2. This dosage would be equivalent to 81 mg/kg in an adult human. 1/50th of 81 mg/kg is 1.6 mg/kg, i.e. 110 mg for a 70 kg adult, or 16 mg for a 10 kg child. This dose can be administered once, twice, or three times daily.

[3] = rat, in vivo; remark: listed apart in the source
[4] = rat, cited from earlier work

With `CC(C)=CCC/C(C)=C/CC/C(C)=C/CCC(C)(O)CCC1=C(C)C(=O)C(C)=C(C)C1=O` (stereo not drawn) [Alpha-tocotrienol quinone, Alpha-Tocotrienol quinone] the Cmax [1] was 442 ng/mL, the Tmax [1] was 2.8 h and the bioavailability [1] was ~16%. For the same molecule, the t1/2 [1] was 7.6 h, the “NOAEL equivalent dosage in an adult human” value [2] was 81 mg/kg and the “safe when given acutely up to” value [2] was “up to 2000 mg/kg”. The “increase in AUCs” value [3] was 1.5:2.8:4.0:6.7, the Cmax ([3]; 10 mg/kg) was 931 ng/mL and the Tmax ([3]; 10 mg/kg) was 3.5 h. For the same molecule, the bioavailability ([3]; 10 mg/kg) was ~90% and the t1/2 ([3]; 10 mg/kg) was 3.5 h.

In the case of `Cc1c(C)c2c(c(C)c1O)CC[C@@](C)(CCC[C@H](C)CCC[C@H](C)CCCC(C)C)O2` [alpha-tocopherol], the “concentration in ocular tissues” value ([4]; in vivo) is given as “no significant increase”.

In the case of alpha-tocotrienol, the “concentration in ocular tissues” value ([4]; topical ophthalmic administration) is given as “increased markedly in every tissue”.

From patent US20180116978A1, “FORMULATIONS OF TOCOTRIENOL QUINONES FOR THE TREATMENT OF OPHTHALMIC DISEASES” (priority 2009, published 2018)
